Measured values taken from US8895753B2, “S1P receptor modulating agent” (Meiji Seika Pharma Co., Ltd., priority 2011, dated 2014).
Values belong to the compound of their own block, whether it stands above or below them.

How the values were obtained:
[1] = biological target: Human S1P3 receptor (Homo sapiens, UniProt Q99500); assay: Agonist activity at a S1P3 receptor (reporter assay, EDG3-Galpha15-NFAT-bla HEK293T cells); assay type: cell-based
Protocol: Human S1P3 receptor gene recombinant EDG3-Galpha15-NFAT-bla HEK293T cells (Life Technologies Japan Ltd.) were plated into a 384-well clear bottom black plate treated with poly-D-lysine at a density of 1000 cells/32 μL/well, and the plate was cultured at 37° C. in a 5% CO2 incubator for 16-24 hours. A culture medium containing each test compound prepared as a 5× concentrate was added at 8 μL/well, and the plate was incubated at 37° C. in a 5% CO2 incubator for 5 hours. The substrate (LiveBLAzer™-FRET B/G substrate (CCF4-AM), Life Technologies Japan Ltd.) was prepared as a 6× concentrate was added at 8 μL to each well, and the plate was incubated at room temperature for 2 hours in the dark. The fluorescence intensity of the test samples was measured using a bottom-reading fluorescence microplate reader at one excitation wavelength and 2 wavelengths for fluorescence emission (Ex409 nm, Em460 nm, Em530 nm). The intensity ratio of fluorescence at 460 nm/530 nm was calculated for the compound at each well. The maximum response ratio confirmed from the dose response of S1P was expressed as 100%. The concentration of test compounds required to stimulate 50% of its maximal activation was computed as EC50 (nM).

[2] = biological target: T1, Human S1P4 receptor (Homo sapiens, UniProt O95977); assay: Agonist activity at a S1P4 receptor (reporter assay, EDG6-bla/U2OS cells); assay type: cell-based
T1 sequence (O95977 1-384): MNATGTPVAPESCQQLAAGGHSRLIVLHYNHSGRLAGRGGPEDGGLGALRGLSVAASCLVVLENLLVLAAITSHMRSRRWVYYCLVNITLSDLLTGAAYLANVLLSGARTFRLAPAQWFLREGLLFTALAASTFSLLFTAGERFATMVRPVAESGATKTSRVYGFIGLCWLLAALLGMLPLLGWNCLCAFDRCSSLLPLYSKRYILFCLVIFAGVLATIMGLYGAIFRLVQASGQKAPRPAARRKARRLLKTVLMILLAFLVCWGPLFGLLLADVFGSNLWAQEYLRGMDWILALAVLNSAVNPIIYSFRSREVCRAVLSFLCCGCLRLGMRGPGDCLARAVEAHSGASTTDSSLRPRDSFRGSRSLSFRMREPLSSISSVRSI
Protocol: Human S1P4 receptor gene recombinant EDG6-bla/U2OS cells (Life Technologies Japan Ltd.) were seeded into each well of a 384-well clear bottom black plate treated with poly-D-lysine at a density of 10000 cells/32 μL/well and cultured at 37° C. in a 5% CO2 incubator for 16 to 24 hours. A culture medium containing each test compound prepared as a 5× concentrate was added at 8 μL/well, and the plate was cultured at 37° C. in a 5% CO2 incubator for 5 hours. The substrate (LiveBLAzer™-FRET B/G substrate (CCF4-AM), Life Technologies Japan Ltd.) prepared as a 6× concentrate was added at 8 μL to each well, and the plate was incubated for 2 hours in the dark. The fluorescence intensity of the test samples was measured using bottom-reading fluorescence microplate reader at one excitation wavelength and 2 wavelengths for fluorescence emission (Ex409 nm, Em460 nm, Em530 nm). The intensity ratio of fluorescence at 460 nm/530 nm was calculated for each well. The maximum response ratio confirmed from the dose response of S1P was expressed as 100%. The concentration of the test compound required to stimulate 50% of its maximal activation was computed as EC50 (nM).

[3] = tested on: heart rate; assay: Evaluation of the heart rate in a rat (under consciousness); assay type: in vivo; details: conscious rat, vascularly administered at 6 mg/kg body weight
Protocol: Under anesthesia, femoral artery was cannulated in a 7-11-week old male SD rat (Charles River Laboratories Japan Inc.) that had been reared for more than one week. Arterial cannula was connected to a pressure transducer, and under consciousness changes in the heart rate were monitored with a polygraph (Nihon Kohden) up to 4 hours after the vascular administration of the vehicle (10% PEG300-0.01M KOH saline) or the test compounds. The dose that lowered the heart rate by 20% was computed as TD20 (mg/kg body weight).

[4] = tested on: electrocardiogram / monophasic action potential (MAP); assay: Evaluation of cardiovascular system in a guinea pig; assay type: in vivo; details: anesthetized guinea pig, 0.1 mg/kg body weight, infusion
Source text: Under anesthesia with 0.5 to 1% of halothane, to a male Hartley guinea-pig (Japan SLC, Inc.) that had been reared for more than one week, a catheter for administration of a drug solution was placed into the left jugular vein, a monophasic action potential (MAP) measurement/pacing catheter was placed into the endothelial lining of the right ventricle, a catheter for measuring blood pressure was placed into the left carotid artery, and the measurement of body surface electrocardiogram (lead II) was conducted. The drug solution was infused for 10 minutes and the measurement was carried out over 60 minutes. Also, 5, 10, 15, 20, 30, 45 and 60 minutes after the administration of the drug solution, pacing was performed (200, 240, 300 bpm), and monophasic action potential (MAP) was measured.

[5] = tested on: collagen-induced arthritis; assay: Collagen-induced arthritis model; assay type: in vivo; details: DBA/1JN mouse, oral once daily for 4 weeks
Protocol: A solution of Type II collagen derived from bovine and Freund's complete adjuvant were mixed to prepare an emulsion. This emulsion was used to elicit collagen-induced arthritis in a 7-week-old female DBA/1JN mouse. The initial sensitization was carried out by subcutaneous administration of the emulsion in the tail of the mouse at a dose of 150 μg/100 μL/body. 21 days after the initial sensitization, a freshly prepared collagen emulsion solution was administered subcutaneously in the tail of the mouse at a dose of 100 μg/100 μL/body as a secondary sensitization. The mouse prepared in this procedure was used as the collagen-induced arthritis model. A compound suspended in 0.5% hydroxymethyl cellulose solution was orally administered by force once daily for 4 weeks following the additional second sensitization. Pathological scores including joint symptoms and the like were measured, and the results compared to the vehicle-treated group, from which the efficacy of the compound was evaluated.

[6] = tested on: experimental autoimmune encephalomyelitis; assay: Experimental autoimmune encephalomyelitis model; assay type: in vivo; details: SJL/J mouse, orally once daily at 1 mg/kg body weight or more
Protocol: An emulsion of PLP139-151/CFA was subcutaneously administered to the upper dorsal region and in the tail of an 8-week-old female SJL/J mouse at a dose of 100 μL/body. At 2 hours and 24 hours after the administration, pertussis toxin was peritoneally administered at a dose of 100 μL/body. Thus, the mouse prepared in this procedure was used as an experimental autoimmune encephalomyelitis model. […] The compound suspended in a solution of 0.5% hydroxypropyl methylcellulose was orally administered by force once daily. The changes in pathological score and body weight were recorded and the results compared to the vehicle-treated group, from which the efficacy of the compounds was evaluated.

[7] = tested on: electrocardiogram; assay: Evaluation of electrocardiogram in a rat (under anesthesia); assay type: in vivo; details: anesthetized rat, intravenous 0.1 mg/kg body weight
Protocol: Under anesthesia, femoral artery was cannulated in a 7-11-week-old male SD rat (Charles River Laboratories Japan Inc.) that had been reared for more than one week, connected to a polygraph (NIHON KODEN) via a pressure transducer. Without consciousness, a vehicle (dimethylsulfoxide) or a test compound was intravenously administered. After the administration, blood pressure, the heart rate, and electrocardiogram were monitored for about 10 minutes.

Human S1P3 receptor, sequence (Q99500 whole entry): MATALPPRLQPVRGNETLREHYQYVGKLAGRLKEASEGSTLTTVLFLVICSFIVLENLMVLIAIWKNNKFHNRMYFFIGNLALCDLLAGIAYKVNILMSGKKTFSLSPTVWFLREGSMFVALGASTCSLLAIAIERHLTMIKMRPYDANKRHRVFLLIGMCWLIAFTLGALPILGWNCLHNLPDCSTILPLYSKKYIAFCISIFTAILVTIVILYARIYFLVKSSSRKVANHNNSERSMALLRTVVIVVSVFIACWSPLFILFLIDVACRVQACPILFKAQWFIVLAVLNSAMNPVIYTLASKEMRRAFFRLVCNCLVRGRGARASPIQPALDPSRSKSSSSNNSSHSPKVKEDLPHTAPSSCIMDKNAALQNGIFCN

SMILES: CC(C)Oc1ccc(-c2cnc(-c3ccc(CN4CC(C(=O)O)C4)cc3)s2)cc1 [Example 2, 1-(4-(5-(4-isopropoxyphenyl)thiazol-2-yl)benzyl)azetidine-3-carboxylic acid]
EC50 [1]: ≥ 2 µM | EC50 [2]: ≥ 2 µM | suppression of the heart rate [3]: not recognized | MAP90 prolongation effect [4]: not observed | prolonged QT [4]: not observed | efficacy on pathological scores (joint symptoms) [5]: equally effective as Fingolimod | inhibition of pathological scores [6]: significantly inhibit | duration of continuous cardiac arrhythmia (AV block) [7]: < 10 s

EC50 [1]: ≥ 2 µM | EC50 [2]: ≥ 2 µM
SMILES: CC(C)Oc1ccc(-c2cnc(-c3ccc(CN4CC(C(=O)O)C4)cc3)s2)cc1Cl [Example 3, 1-(4-(5-(3-chloro-4-isopropoxyphenyl)thiazol-2-yl)benzyl)azetidine-3-carboxylic acid]
suppression of the heart rate [3]: not recognized
